Tests used:
chlorite dismutase (Cld) [1] = target: T1, chlorite dismutase (Cld) (Dechloromonas aromatica (nom. nud.), UniProt Q47CX0); experiment: X-ray co-crystal structure; assay type: binding
chlorite dismutase (Cld) [2] = target: T1, chlorite dismutase (Cld); experiment: biochemical

T1 sequence (Q47CX0 35-282): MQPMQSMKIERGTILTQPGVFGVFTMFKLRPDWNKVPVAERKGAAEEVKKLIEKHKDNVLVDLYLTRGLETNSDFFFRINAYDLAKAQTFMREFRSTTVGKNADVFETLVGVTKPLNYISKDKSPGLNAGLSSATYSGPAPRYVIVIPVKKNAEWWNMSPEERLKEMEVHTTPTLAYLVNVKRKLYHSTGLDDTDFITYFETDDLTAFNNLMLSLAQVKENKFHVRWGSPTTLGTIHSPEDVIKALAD

| SMILES | Kd (chlorite dismutase (Cld) [1]) | Kd (chlorite dismutase (Cld) [2]) |
| --- | --- | --- |
| O=NO [nitrite] | 1.12 mM | – |
| CC(=O)O [acetate] | – | 36 mM |

Source: article PMC2909366 (Journal of biological inorganic chemistry : JBIC : a …, 2010)
